Values of other authors in patent publication US20260191920A1, “METHODS AND COMPOSITIONS FOR TREATING AND PREVENTING CENTRAL NERVOUS SYSTEM DISORDERS AND OTHER CONDITIONS CAUSED BY GUT MICROBIAL DYSBIOSIS” (HOLOBIOME, INC., priority 2019, published 2026).

How the values were obtained:
[1] = by day 6, mice pretreated with oral antibiotics, regardless of diet; cited from earlier work
[2] = test system: (Q+)tRNA^His and (Q+)tRNA^Asn in the liver; conditions: queuine-deficient mice, intraperitoneal, 325 micrograms per injection, 24 h apart; cited from earlier work
germ-free mice = conditions: chemically synthesized queuine at 0.1 μM in the diet; cited from earlier work

Compound | fraction of ingested dose eliminated [1] | (Q+)tRNA^His and (Q+)tRNA^Asn percentages in the liver [2] | effect on adverse health effects and death of tyrosine- and queuine-deprived germ-free mice (germ-free mice)
[CH3][Hg][Cl] [methylmercury] | 0-6% | – | –
Nc1nc2[nH]cc(CN[C@H]3C=C[C@H](O)[C@@H]3O)c2c(=O)[nH]1 [queuine, 2-amino-5-((((1S,4S,5R)-4,5-dihydroxy-2-cyclopenten-1-yl)amino)methyl)-1,7-dihydro-4H-pyrrolo (2,3-d) pyrimidin-4-one] | – | corresponding increase | prevented emergence of these deleterious effects
